Laboratory results: patent US9440926B2, “Antiviral compounds and methods” (Biotron Limited, priority 2005, dated 2016)
Like-named read-outs stand apart in the source and are kept apart here.

Tests used:
Format in all cases: cell-based
Vpu = biological target: T1, Vpu (Human immunodeficiency virus type 1 group M subtype B, UniProt P05919); test: Bacterial bioassay, Vpu; conditions: mean bacterial bioassay score; Vpu of HIV
T1 construct: expressed in transfected cells
From the text: (§1) The bacterial bioassay method used in the present example to test the anti-viral activity of the compounds against different viral targets was described in detail in PCT/2004/000866, incorporated in its entirety herein by reference. Vpu, p7 and M referred to in the table are small membrane proteins encoded by HIV, HCV and Dengue viruses, respectively, which have functional activities supporting viral growth and/or replication.

HCV p7 = biological target: T2, HCV p7 (Hepatitis C virus genotype 1a, UniProt P27958); test: Bacterial bioassay, HCV p7; parameters: scale not given here; conditions: mean bacterial bioassay score; p7 of HCV
T2 construct: expressed in transfected cells
From the text: as §1

Den M = biological target: T3, Den M (Dengue virus type 1, UniProt P33478); test: Bacterial bioassay, Den M; parameters: scale not given here; conditions: mean bacterial bioassay score; M protein of Dengue virus
T3 construct: expressed in transfected cells
From the text: as §1

[1] = Cytotoxicity to cells in the viral inhibition assay (MTT assay); conditions: human, primary human macrophages, read-out: TC50 (the source's name)
Method: The toxicity of test compounds to cells in the viral inhibition assay was determined using the MTT assay (Pauwels R, et al. (1988); D'Cruz O J et al. (1999); Joo H. (2003)). This method utilises Thiazolyl Blue (MTT), which is added to the cell culture (100 ug/well), and incubated for 4-5 hours whilst the live, metabolically active cells convert the chemical to its purple coloured metabolite, which forms intracellular crystals. The purple colour is measured colourimetrically (570-590 nm) once cells have been permeabilised using acidified isopropanol containing 10% triton X-100. The most intense colour development occurs in wells where the metabolising cells are most numerous. […] Those values were estimated manually from the Percentage Viability vs Concentration dose response curves (FIG. 1). The compound toxicity to cells in culture was taken into account in inhibition experiments and in separate experiments involving increased concentrations of compound. TC50 values were estimated in separate experiments (not shown) where concentrations of compound were greater.

HIV-1 strain Ba-L = test: HIV-1 Ba-L growth inhibition in primary macrophages (p24 ELISA); conditions: for IC50: Human immunodeficiency virus 1, BAL, Primary macrophage; for AI (Antiviral Index): calculated by formula from TC50 and IC50, HIV-1Ba-L in primary macrophages
Method: The inhibition specifically of HIV-1 growth by the compounds of the invention was tested in primary macrophages in vitro using a method similar to that used to assess antibody neutralization (VanCott T C et al (1999)). In the present case, the laboratory adapted HIV-1 strain Ba-L was used, which is known to infect macrophages.
Peripheral Blood Mononuclear Cells (PBMC) were prepared from healthy donors using buffy-coat packs obtained from the Australian Red Cross Blood Service (ARCBS). Blood was received the day following donation, and had been depleted of serum and platelets, leaving a small volume (less than 100 mL) of concentrated leukocytes.
Leukocytes were separated from blood cells and granulocytes by density gradient centrifugation (Ficoll Paque) and washed extensively in PBS^− (without Ca/Mg) to remove platelets. Recovered cells were allowed to adhere to plastic tissue culture flasks (Becton Dickinson) for 2 hr, 37° C., 5% CO2, in media (DMEM (high)/10% AB serum/50 ug/mL gentamicin/2 mM L-glutamine) during which time the myeloid cells formed an adherent monolayer leaving lymphocytes unattached.
Non-adherent lymphocytes were removed by washing with warm PBS^+ (with Ca/Mg) and were generally discarded. In some cases those cells were recovered and frozen in media/10% DMSO for use in viral stock infections. The adherent monocytes were recovered by scraping gently with a plastic cell scraper. The myeloid cells were then plated into 96-well plates at a cell concentration of 1.5×10^6/mL, and allowed to fully differentiate over a period of 14 days.
Macrophages were allowed to differentiate over a 14 day period, with media changes as required. On day 14, cells were infected in the presence of decreasing concentrations of BIT compounds over a range 0-10 μM. Samples of 25 μL culture supernatants were removed from each well on day 7 and fresh media plus compound dilution was added.
After 7 days the samples with and without compound were analysed to assess the level of virus present in the wells, using a p24 ELISA (Innotest). Virus levels in samples were converted to “percentage of control virus growth” values based on the controls (containing no compound). From that dose response curve (example FIG. 1) the IC50 was calculated and used as a measure of compound anti-HIV activity.

[2] = 50% cell viability, MTT assay, estimated in separate experiments at greater compound concentrations
[3] = 168 h, against HIV-1Ba-L in primary macrophages, p24 ELISA after 7 days, estimated from dose response curves (FIG. 1), 0-10 μM, read-out: IC50
[4] = additional compounds, same assay system, MTT
[5] = additional compounds, same assay system (HIV-1Ba-L, primary macrophages), estimated from dose response curves, read-out: Estimated IC50

T2 sequence (P27958 747-809): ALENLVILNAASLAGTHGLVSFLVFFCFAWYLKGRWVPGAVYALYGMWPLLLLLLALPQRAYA
T1 sequence (P05919 whole entry): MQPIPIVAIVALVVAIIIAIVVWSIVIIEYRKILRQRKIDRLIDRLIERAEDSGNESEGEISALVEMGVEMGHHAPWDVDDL
T3 sequence (P33478 206-280): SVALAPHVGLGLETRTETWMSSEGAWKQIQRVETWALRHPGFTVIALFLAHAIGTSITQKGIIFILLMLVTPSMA

Row | Compound | Average Bacterial Assay Score, Vpu (Vpu) | Average Bacterial Assay Score, HCV p7 (HCV p7) | Average Bacterial Assay Score, Den M (Den M) | CC50 [1, 2] | IC50 (HIV-1 strain Ba-L; [3]) | AI (Antiviral Index) (HIV-1 strain Ba-L) | CC50 [1, 4] | IC50 (HIV-1 strain Ba-L; [5])
1 | N=C(N)NC(=O)C=Cc1cccc(Br)c1 [BIT067, (3-Bromocinnamoyl)guanidine, reference compound] | 2.88 |  |  |  |  |  |  | 
2 | N=C(N)NC(=O)C=Cc1cc(Br)ccc1F [BIT124, 5-bromo-2-fluorocinnamoylguanidine, reference compound] |  | 2.25 |  |  |  |  |  | 
3 | N=C(N)NC(=O)C=CC=Cc1ccccc1Br [BIT128, 5-(2′-bromophenyl)penta-2,4-dienoylguanidine, reference compound] |  |  | 2.87 |  |  |  |  | 
4 | N=C(N)NC(=O)/C=C/c1cccc(C(=O)c2ccccc2)c1 [BIT216, (3-benzoyl)cinnamoylguanidine] | 1.3 | 1.3 | 1.5 | 25 to 495 µM | 0.9 µM | 28-550 |  | 
5 | N=C(N)NC(=O)/C=C/c1cccc2c1OCO2 [BIT217, 2,3-methylenedioxycinnamoyl guanidine] | 1.8 | 1.0 |  | > 100 µM | 1.1 µM | >91 |  | 
6 | Cc1cccc2cc(C(=O)NC(=N)N)ccc12 [BIT218, 5-methyl-2-napthoylguanidine] | 1.8 | 1.7 | 1.3 | > 300 µM | 1.56 µM | >192 |  | 
7 | N=C(N)NC(=O)/C=C/c1cccc2c1CCC2 [BIT222, 3(indan-4-yl)-propenoylguanidine] | 1.2 | 2.0 | 2.2 | > 100 µM | > 10 µM | >10 |  | 
8 | COc1ccc2cc(C(=O)NC(=N)N)ccc2c1Br [BIT223, 5-bromo-6-methoxy-2-napthoylguanidine] | 0 | 0.0 |  | > 300 µM | 0.3 µM | >1000 |  | 
9 | N=C(N)NC(=O)c1ccc2c(-c3ccsc3)cccc2c1 [BIT224, 5-thiophen-3-yl-2-naphthoylguanidine] | 2.2 | 1.1 | 1.3 | > 200 µM | 1 µM | >100 |  | 
10 | Cn1cc(-c2cccc3cc(C(=O)NC(=N)N)ccc23)cn1 [BIT225, 5-(1-methylpyrazol-4-yl)2-naphthoylguanidine] | 1.4 | 1.2 | 0.9 | > 200 µM | 2.5 µM | >80 |  | 
11 | N=C(N)NC(=O)C=Cc1ccc(Cl)c(Cl)c1 [BIT300, 3,4-dichlorocinnamoyl guanidine] | 1.52 | 0.67 | 3.40 |  |  |  |  | 
12 | COc1c(C(=O)NC(=N)N)ccc2ccccc12 [BIT301, (1-methoxy-2-napthoyl)guanidine] | 1.54 | 0.25 | 0.50 |  |  |  | > 50 µM | < 2.5 µM
13 | COc1cc2ccccc2cc1C(=O)NC(=N)N [BIT302, (3-methoxy-2-napthoyl)guanidine] | 1.04 | 0.42 | 0.50 |  |  |  | > 50 µM | < 2.5 µM
14 | N=C(N)NC(=O)c1ccc2c(Br)cccc2c1 [BIT303, (5-bromo-2-napthoyl)guanidine] | 0.22 | 0.00 | 2.10 |  |  |  | 10 to 50 µM | < 2.5 µM
15 | COc1cc(C(=O)NC(=N)N)c(OC)c2ccccc12 [BIT304, (1,4-dimethoxy-2-napthoyl)guanidine] | 0.62 | 0.33 | 1.90 |  |  |  | 10 to 50 µM | < 10 µM
16 | N=C(N)NC(=O)c1ccc2cc(-c3ccsc3)ccc2c1 [BIT305, (6-(3-thienyl)-2-napthoyl)guanidine] | 0.38 | 0.00 | 1.15 |  |  |  | < 10 µM | < 0.63 µM
17 | Cc1ccc2cc(C(=O)NC(=N)N)ccc2c1 [BIT306, (6-methyl-2-napthoyl)guanidine] | 0.52 | 0.25 | 2.53 |  |  |  | 10 to 50 µM | < 10 µM
18 | N=C(N)NC(=O)c1ccc2c(-c3ccccc3)cccc2c1 [BIT307, (5-phenyl-2-napthoyl)guanidine] | 0.12 | 0.08 | 2.40 |  |  |  | 10 to 50 µM | < 0.63 µM
19 | N=C(N)NC(=O)c1ccc2c(-c3cccs3)cccc2c1 [BIT308, (5-(thien-2-yl)-2-napthoyl)guanidine] | 0.45 | 0.08 | 2.40 |  |  |  | 10 to 50 µM | < 0.63 µM
20 | CC(=O)O.Cn1cc(-c2ccc3cc(C(=O)NC(=N)N)ccc3c2)cn1 [BIT314, (6-(1-methylpryazol-4-yl)-2-napthoyl)guanidinium acetate] | 0.00 | 3.30 | 1.60 |  |  |  |  | 
21 | COc1ccc(-c2cccc3cc(C(=O)NC(=N)N)ccc23)c(OC)n1 [BIT315, (5-(2,6-dimethoxypyridin-3-yl)-2-napthoyl)guanidine] | 0.20 | 0.30 | 1.00 |  |  |  |  | 
22 | N=C(N)NC(=O)c1ccc2c(-c3ccccc3Cl)cccc2c1 [BIT316, (5-(2-chlorophenyl)-2-napthoyl)guanidine] | 0.20 | 0.80 | 0.50 |  |  |  |  | 
23 | CC(=O)Nc1ccc(-c2cccc3cc(C(=O)NC(=N)N)ccc23)cc1 [BIT317, (5-(4-(acetylamino)phenyl)-2-napthoyl)guanidine] | 0.00 | 0.20 | 0.40 |  |  |  |  | 
24 | CC(=O)Nc1cccc(-c2cccc3cc(C(=O)NC(=N)N)ccc23)c1 [BIT318, (5-(3-(acetylamino)phenyl)-2-napthoyl)guanidine] | 2.00 | 0.30 | 0.35 |  |  |  |  | 
25 | CS(=O)(=O)Nc1ccc(-c2cccc3cc(C(=O)NC(=N)N)ccc23)cc1 [BIT319, (5-(4-((methylsulphonyl)amino)phenyl)-2-napthoyl)guanidine] | 0.00 | 0.00 | 0.15 |  |  |  |  | 
